According to publication PMC7901699, “Challenging inflammatory process at molecular, cellular and in vivo levels via some new pyrazolyl thiazolones” (Journal of Enzyme Inhibition and Medicinal Chemistry, 2021):
pIC50: −log10 of the molar value. “Also recorded” adds a separate entry of the source. Where two headings read alike, the source gives them in different places.

Tests used:
[1] = test system: rat stomach; conditions: in vivo, po, 5 mg/kg
[2] = test system: PMA/LPS-stimulated THP-1 (M1 macrophages); assay: Cytotoxicity assay on differentiated M1 macrophages (MTS); assay type: cell-based, human; conditions: PMA 24 h, LPS 24 h, then compound 24 h; up to 100 μM
Description: To confirm that the previous observations were a consequence of interference of the compounds with the differentiation process rather than a reduction in monocyte viability, THP-1 monocytes were incubated with different concentrations of the compound for 30 h. No difference in cell viability was detected. Moreover, the cytotoxic effects of the drugs on differentiated macrophages were evaluated. Following the incubation of THP-1 cells with 25 nM PMA for 24 h and 100 ng/ml LPS for 24 h, the differentiated macrophages were treated with different concentrations of the compounds for 24 h. Cell viability was assessed using MTS colorimetric cell viability kit (Abcam, Cambridge, UK).

[3] = target: T1, human recombinant COX-2 (Homo sapiens, UniProt P35354); assay: In vitro COX-2 inhibition assay (colorimetric COX inhibitor screening kit, Cayman); assay type: biochemical; conditions: for SI (COX-1/ COX-2): IC50 (COX-1)/IC50 (COX-2); for pIC50: mean of three determinations
T1 construct: purchased Cayman Chemicals Inc. 560131
T1 sequence (P35354 18-604): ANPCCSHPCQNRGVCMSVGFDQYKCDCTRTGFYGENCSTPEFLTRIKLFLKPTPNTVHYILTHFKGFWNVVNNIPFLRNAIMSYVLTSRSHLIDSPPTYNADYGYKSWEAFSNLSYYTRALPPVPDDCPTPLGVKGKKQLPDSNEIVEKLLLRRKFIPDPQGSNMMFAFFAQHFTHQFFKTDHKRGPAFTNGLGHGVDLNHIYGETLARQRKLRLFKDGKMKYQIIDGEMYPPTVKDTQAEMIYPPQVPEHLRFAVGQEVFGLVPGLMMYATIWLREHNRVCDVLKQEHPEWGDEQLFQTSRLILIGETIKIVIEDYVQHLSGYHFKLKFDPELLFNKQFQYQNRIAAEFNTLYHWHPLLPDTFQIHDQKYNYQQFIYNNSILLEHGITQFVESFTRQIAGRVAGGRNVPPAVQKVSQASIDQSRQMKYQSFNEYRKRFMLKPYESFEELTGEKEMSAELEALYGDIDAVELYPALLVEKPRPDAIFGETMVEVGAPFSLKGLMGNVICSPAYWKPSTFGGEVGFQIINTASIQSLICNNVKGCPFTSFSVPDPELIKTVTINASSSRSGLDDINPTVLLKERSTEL
Description: (§1) Both assays were carried out in compliance with the manufacturer’s instructions and in accordance to prior studies[29]^,[33].
(§2) IC50 values (μM) and selectivity indices (SI) were calculated.

[4] = test system: rat stomach; assay: Gastric ulcerogenic activity and histopathological examination; conditions: stomach removed on 8th day of administration, 5 mg/kg oral
[5] = target: T2, ovine COX-1 (Ovis aries, UniProt P05979); assay: In vitro COX-1 inhibition assay (colorimetric COX inhibitor screening kit, Cayman); assay type: biochemical; conditions: mean of three determinations
T2 construct: purchased Cayman Chemicals Inc. 560131
T2 sequence (P05979 25-600): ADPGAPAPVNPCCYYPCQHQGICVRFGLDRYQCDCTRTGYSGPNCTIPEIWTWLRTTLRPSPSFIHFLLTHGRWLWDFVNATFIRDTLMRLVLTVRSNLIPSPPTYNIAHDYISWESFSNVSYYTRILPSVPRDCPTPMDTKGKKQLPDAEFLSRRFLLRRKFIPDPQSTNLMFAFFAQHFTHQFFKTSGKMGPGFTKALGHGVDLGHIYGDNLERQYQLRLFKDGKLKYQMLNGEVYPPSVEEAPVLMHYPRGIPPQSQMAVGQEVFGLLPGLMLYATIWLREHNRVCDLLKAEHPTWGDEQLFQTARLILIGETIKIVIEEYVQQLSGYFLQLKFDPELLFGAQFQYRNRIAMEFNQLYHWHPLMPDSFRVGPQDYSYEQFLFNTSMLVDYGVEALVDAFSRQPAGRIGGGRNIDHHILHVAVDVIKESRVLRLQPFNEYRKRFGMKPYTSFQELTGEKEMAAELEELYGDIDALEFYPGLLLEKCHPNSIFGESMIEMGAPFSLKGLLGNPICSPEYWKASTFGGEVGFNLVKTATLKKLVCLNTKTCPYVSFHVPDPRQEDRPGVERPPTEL
Description: as §1, §2

[6] = test system: THP-1 cells; assay: Monocyte-to-macrophage differentiation assay, M1 polarisation (PMA then LPS); assay type: cell-based, human; conditions: for pIC50: Homo sapiens, THP-1, 6 h pre-incubation, PMA 25 nM 24 h then LPS 100 ng/ml 72 h, MTS, read-out: IC50 inhibition of THP-1 monocyte differentiation into M1 macrophages
Description: (§3) Monocytes were cultured and differentiated as described previously. THP-1 cells (human acute monocytic leukaemia lineage, American Type Culture Collection, Manassas, VA) were seeded at a density of 20 × 10^5 cells/ml. A set of cells were exposed to 25 nM of phorbol myristate-acetate (PMA, Calbiochem, Darmstadt, Germany) for 24 h to drive differentiation. Another set was similarly treated with PMA followed by 100 ng/ml of lipopolysaccharide (LPS, invivogen, San Diego, CA, USA) for 72 h. After incubation, the supernatant was aspirated and the density of the adherent cells was estimated using MTS colorimetric cell viability kit (Abcam, Cambridge, UK). The inhibitory actions of different compounds on the differentiation process were evaluated by pre-incubation with different concentrations of each compound for 6 h. Cell viability after treatment was normalised to the reading after PMA exposure following a 6-h incubation with DMSO. All experiments were conducted in triplicates. A positive control for the effect of COX1/COX2 inhibition on monocyte-to-macrophage differentiation was obtained by treatment with diclofenac. IC50 values for each compound were determined by non-linear regression as the best fit values of the log [inhibitor] vs. response curve using GraphPad Prism software.

[7] = test system: IL-1β; assay: IL-1β protein expression by Western blotting; assay type: cell-based, human; conditions: 100 μM compound; PMA 24 h then LPS 72 h; normalised to GAPDH
Description: THP-1 monocytes were exposed to 100 μM of the test compounds, activated with 25 nM PMA for 24 h followed by 100 ng/ml LPS for 72 h. At the end of the incubation period, cells were harvested, proteins were extracted and SDS-PAGE electrophoresis, blotting, and antibody probing were conducted as described previously. Primary rabbit polyclonal antibodies to IL-1β, procaspase-3, and GAPDH were obtained from Abcam (Cambridge, UK). Clarity Western ECL substrate (BioRad, Hercules, CA, USA) was used to obtain a chemiluminescence signal captured by a Chemidoc imaging system (BioRad, Hercules, CA, USA). Band density was estimated using ImageJ software (National Institutes of Health, Bethesda, MD) and normalised to the GAPDH band density as a loading control.

[8] = target: T3, 15-LOX (Glycine max, UniProt P08170); assay: In vitro 15-LOX inhibition assay (lipoxygenase inhibitor screening kit, Cayman); assay type: biochemical; conditions: mean of three determinations
T3 construct: purchased Cayman chemicals 760700
T3 sequence (P08170 1-839): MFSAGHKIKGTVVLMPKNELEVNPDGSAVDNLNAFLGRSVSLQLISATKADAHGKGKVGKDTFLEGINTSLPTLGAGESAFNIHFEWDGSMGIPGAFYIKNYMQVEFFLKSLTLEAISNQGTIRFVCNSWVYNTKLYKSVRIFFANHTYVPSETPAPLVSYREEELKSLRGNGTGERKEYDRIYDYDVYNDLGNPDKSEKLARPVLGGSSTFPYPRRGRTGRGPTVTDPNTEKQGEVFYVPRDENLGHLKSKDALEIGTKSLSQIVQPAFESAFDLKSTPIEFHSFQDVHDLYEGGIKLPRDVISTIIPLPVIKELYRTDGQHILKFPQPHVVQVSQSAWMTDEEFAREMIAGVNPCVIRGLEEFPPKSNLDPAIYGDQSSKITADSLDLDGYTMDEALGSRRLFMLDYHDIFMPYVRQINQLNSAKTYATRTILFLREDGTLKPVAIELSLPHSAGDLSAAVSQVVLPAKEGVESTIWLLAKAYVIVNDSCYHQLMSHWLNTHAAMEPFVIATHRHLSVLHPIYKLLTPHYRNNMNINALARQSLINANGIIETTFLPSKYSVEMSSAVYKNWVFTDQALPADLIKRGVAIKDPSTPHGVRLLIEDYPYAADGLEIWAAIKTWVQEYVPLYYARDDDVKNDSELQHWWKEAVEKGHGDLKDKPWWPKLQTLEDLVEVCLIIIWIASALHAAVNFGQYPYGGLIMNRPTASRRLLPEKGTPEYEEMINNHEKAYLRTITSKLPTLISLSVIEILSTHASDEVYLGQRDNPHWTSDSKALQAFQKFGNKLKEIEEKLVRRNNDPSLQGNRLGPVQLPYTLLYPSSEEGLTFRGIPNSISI
Description: as §1, §2

[9] = test system: cotton pellet-induced granuloma; assay: Cotton pellet-induced granuloma assay (chronic inflammation model); conditions: oral 5 mg/kg daily; pellets excised on 8th day; vs diclofenac sodium and celecoxib; 5 mg/kg
[10] = test system: THP-1 cells; assay: Monocyte-to-macrophage differentiation assay, resting M0 macrophages (PMA only); assay type: cell-based, human; conditions: data not shown
Description: as §3

| Gross observation of isolated rat stomachs [1] | Structure (SMILES) | Histopathological examination of stomach gastric layers [1] | M1 macrophage cell viability [2] | SI (COX-1/ COX-2) [3] | pIC50 [3] | Gross observation of isolated rat stomachs [4] | Histopathological examination of stomach gastric layers ([4]; H&E, 5 mg/kg) | pIC50 [5] | pIC50 [6] | Inhibition of THP-1 differentiation into M1 macrophages (in words) ([6]; PMA then LPS, diclofenac as reference) | IL-1β expression in PMA/LPS-challenged THP-1 [7] | pIC50 [8] | Inhibition of cotton pellet granuloma weight (in words) [9] | IC50 for M0 macrophage differentiation (in words) [10] |
| --- | --- | --- | --- | --- | --- | --- | --- | --- | --- | --- | --- | --- | --- | --- |
| normal stomach texture | Cc1ccc(-c2cc(C(F)(F)F)nn2-c2ccc(S(N)(=O)=O)cc2)cc1 [Celecoxib] | no ulceration with normal gastro-esophageal junction | – | – | – | – | – | – | – | – | – | – | – | – |
| – | O=C1N=C(N2CCOCC2)S/C1=C\c1cn(-c2ccccc2)nc1-c1ccccc1 [Compound 4, (Z)-5-((1,3-diphenyl-1H-pyrazol-4-yl)methylene)-2-morpholinothiazol-4(5H)-one] | – | tended to slightly decrease | 80 | 6.85 | variable levels of hyperaemia without gross ulceration | esophago-gastric inflammation; also recorded: gastro-esophageal inflammatory infiltrates | 4.95 | 4.95 | potent inhibitory effects on monocyte-to-macrophage differentiation; also recorded: higher potency compared to diclofenac | attenuating IL-1β production | 5.33 | – | – |
| – | COc1ccc(-c2nn(-c3ccccc3)cc2/C=C2\SC(N3CCOCC3)=NC2=O)cc1 [Compound 8, (Z)-5-((3-(4-methoxyphenyl)-1-phenyl-1H-pyrazol-4-yl)methylene)-2-morpholinothiazol-4(5H)-one] | – | – | 113 | 6.96 | – | – | 4.90 | 3.46 | – | attenuating IL-1β production | 5.33 | superior anti-inflammatory activity, when compared to diclofenac and celecoxib; also recorded: increased inhibition of granuloma weight in comparison to both celecoxib and diclofenac | – |
| – | O=C(O)Cc1ccccc1Nc1c(Cl)cccc1Cl [Diclofenac Na, Diclofenac sodium, reference compound] | – | – | – | – | normal stomach texture | – | – | 4.00 | – | – | – | – | comparable IC50 to that observed for the M1 macrophage differentiation |
